Data as given in ChEMBL document CHEMBL5107956, “Natural products from mangrove sediments-derived microbes: Structural diversity, bioactivities, biosynthesis, and total synthesis” (Eur J Med Chem, 2022).
pIC50: −log10 of the molar value. ≈ marks a conversion by molar mass, not a printed value. Blank lines part the entries; values can stand above or below the molecule they belong to.

Columns and labels:
[1] = Antioxidant activity assessed as free radical scavenging activity incubated for 30 mins under dark condition by microplate reader analysis; type: functional
A-375 = assay: Cytotoxicity against human A-375 cells assessed as cell growth inhibition by MTT assay; type: functional, cell-based
A549 [2] = assay: Cytotoxicity against human A549 cells assessed as cell growth inhibition by MTT assay; type: functional, cell-based
HepG2 [3] = assay: Cytotoxicity against human HepG2 cells assessed as cell growth inhibition by MTT assay; type: functional, cell-based
MCF7 [4] = assay: Cytotoxicity against human MCF7 cells assessed as cell growth inhibition by MTT assay; type: functional, cell-based
HL-60 [5] = assay: Antiproliferative activity against human HL-60 cells assessed as cell growth inhibition by MTT assay; type: functional, cell-based
A549 [6] = assay: Antiproliferative activity against human A549 cells assessed as cell growth inhibition by MTT assay; type: functional, cell-based
[7] = Antiproliferative activity against human Pancreatic cancer cell assessed as cell growth inhibition measured after 24 hrs by CCK-8 assay; type: functional, cell-based
Staphylococcus aureus [8] = assay: Antibacterial activity against Staphylococcus aureus ATCC 25923 assessed as bacterial growth inhibition; type: functional, organism-based
[9] = Antioxidant activity assessed as free radical scavenging activity incubated for 30 mins by microplate reader analysis; type: functional
[10] = Toxicity in brine shrimp assessed as induction of lethality; settings: artemia salina; read-out: LD50 (the source's name)
A549 [11] = assay: Cytotoxicity against human A549 cells assessed as cell growth inhibition incubated for 48 hrs by CCK-8 assay; type: functional, cell-based; settings: A549, 48 h
HCT-116 [12] = assay: Cytotoxicity against human HCT-116 cells assessed as cell growth inhibition incubated for 48 hrs by CCK-8 assay; type: functional, cell-based; settings: HCT-116, 48 h
Candida albicans [13] = assay: Antifungal activity against Candida albicans assessed as fungal growth inhibition measured after 20 hrs; type: functional
OS-RC-2 = assay: Antiproliferative activity against human OS-RC-2 cells assessed as cell growth inhibition measured after 72 hrs by CCK-8 assay; type: functional, cell-based; settings: OS-RC-2, 72 h
[14] = target: Prostaglandin G/H synthase 2 (Homo sapiens) (UniProt P35354); assay: Inhibition of COX2 (unknown origin) at 20 nM relative to control
Prostaglandin G/H synthase 2 (Homo sapiens), sequence (P35354 whole entry, looked up): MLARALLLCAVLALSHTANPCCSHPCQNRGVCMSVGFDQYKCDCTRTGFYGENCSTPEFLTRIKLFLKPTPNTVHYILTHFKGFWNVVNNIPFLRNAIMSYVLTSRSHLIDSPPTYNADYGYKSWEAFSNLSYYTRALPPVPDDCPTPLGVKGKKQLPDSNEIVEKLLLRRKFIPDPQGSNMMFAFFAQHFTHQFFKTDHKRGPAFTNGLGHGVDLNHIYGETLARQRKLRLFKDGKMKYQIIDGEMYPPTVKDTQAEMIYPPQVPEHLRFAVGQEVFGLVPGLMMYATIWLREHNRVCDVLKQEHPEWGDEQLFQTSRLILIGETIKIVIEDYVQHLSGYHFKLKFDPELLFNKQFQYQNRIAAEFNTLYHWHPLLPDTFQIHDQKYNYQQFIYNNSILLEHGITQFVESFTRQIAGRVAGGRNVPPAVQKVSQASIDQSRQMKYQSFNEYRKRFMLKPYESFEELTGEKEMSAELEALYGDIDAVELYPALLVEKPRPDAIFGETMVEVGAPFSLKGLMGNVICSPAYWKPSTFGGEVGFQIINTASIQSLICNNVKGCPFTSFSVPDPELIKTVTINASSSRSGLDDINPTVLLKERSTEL

HL-60 [15] = assay: Cytotoxicity against human HL-60 cells assessed as cell growth inhibition measured after 72 hrs by MTT assay; type: functional, cell-based; settings: HL-60, 72 h
A549 [16] = assay: Cytotoxicity against human A549 cells assessed as cell growth inhibition measured after 72 hrs by MTT assay; type: functional, cell-based; settings: A549, 72 h
HCT-116 [17] = assay: Cytotoxicity against human HCT-116 cells assessed as cell growth inhibition by MTT assay; type: functional, cell-based
Candida albicans [18] = assay: Antifungal activity against Candida albicans ATCC 10231 assessed as fungal growth inhibition by agar dilution method; type: functional
Staphylococcus aureus [19] = assay: Antibacterial activity against methicillin-resistant Staphylococcus aureus assessed as bacterial cell growth inhibition by agar dilution method; type: functional
HL-60 [20] = assay: Antiproliferative activity against human HL-60 cells assessed as cell growth inhibition measured after 72 hrs by CCK-8 assay; type: functional, cell-based; settings: HL-60, 72 h
MCF7 [21] = assay: Cytotoxicity against human MCF7 cells assessed as cell growth inhibition; type: functional, cell-based
[22] = Cytotoxicity against human HM02 cells assessed as cell growth inhibition; type: functional
HepG2 [23] = assay: Cytotoxicity against human HepG2 cells assessed as cell growth inhibition; type: functional
HCT-116 [24] = assay: Cytotoxicity against human HCT-116 cells assessed as cell growth inhibition by SRB assay; type: functional, cell-based
SW-620 = assay: Cytotoxicity against human SW-620 cells assessed as cell growth inhibition by SRB assay; type: functional, cell-based
HeLa = assay: Cytotoxicity against human HeLa cells assessed as cell growth inhibition by MTT assay; type: functional, cell-based

pIC50 [1]: 5.62
Structure (SMILES): CCCC1C(=O)C2CCC3(C)CC(C)C(O3)C(O)/C=C(\C)C(=O)CC1OC2=O (stereo unspecified)

Structure (SMILES): C=C1C(O)[C@@H]2/C=C/C[C@H](C)C(=O)[C@](C)(O)/C=C/OC(=O)O[C@]23C(=O)N[C@@H](Cc2ccc(OC)cc2)[C@@H]3[C@@H]1C (stereo partly specified)
pIC50 (A-375): 6.33 | pIC50 (A549 [2]): 6.33 | pIC50 (HepG2 [3]): 6.33 | pIC50 (MCF7 [4]): 6.33

pIC50 (HL-60 [5]): 5.85 | pIC50 (A549 [6]): 5.30
Structure (SMILES): COC1=C(CO)O[C@@H]2C[C@@]1(OC)n1c3ccccc3c3c4c(c5c6ccccc6n2c5c31)C(=O)NC4

Structure (SMILES): COC(C)[C@H]1[C@H]2[C@H](C[C@H]1C)[C@H]1C[C@H]3/C=C/C(=O)C4=C(O)[C@@H](CCCNC(=O)/C=C\C[C@@H]3[C@H]1[C@@H]1O[C@@H]12)NC4=O (stereo partly specified)
pIC50 [7]: 5.89

Structure (SMILES): CCOC(=O)[C@]1(Cc2ccc(O)c(CC3OC3(C)C)c2)OC(=O)C(O)C1c1ccc(O)cc1 (stereo partly specified)
pIC50 (Staphylococcus aureus [8]): 4.67

pIC50 [9]: 5.33
Structure (SMILES): O=C(NCCCO)c1ccc(O)c(O)c1

Structure (SMILES): CCCCC[C@@H]1Cc2cc(O)c(C)c(O)c2C(=O)O1
LC50 [10]: 7.7 µg/mL (≈ 29.1 µM)

Structure (SMILES): C[C@@H]1O[C@@H](Oc2ccc(-c3cc(=O)c4ccc(O[C@H]5C[C@H](O)[C@H](O)[C@H](C)O5)cc4o3)cc2)C[C@H](O)[C@@H]1O
IC50 (A549 [11]): 13.5 µg/mL (≈ 26.2 µM) | IC50 (HCT-116 [12]): 13.5 µg/mL (≈ 26.2 µM)

MIC (Candida albicans [13]): 5 µg/mL (≈ 9.87 µM)
Structure (SMILES): CCCCCC[C@H]1C(=O)O[C@H](C)[C@H](NC(=O)c2cccc(NC=O)c2O)C(=O)O[C@@H](C)[C@@H]1OC(C)=O

Structure (SMILES): C=C(C(C)=O)[C@H](O)[C@H](C)/C=C(C)/C=C/C/C(C)=C/Cc1nc(OC)c(OC)c(O)c1C
pIC50 (OS-RC-2): 5.66

pIC50 [1]: 4.75
Structure (SMILES): C/C=C/C=C/CCc1c(O)ccc(O)c1COC

inhibition [14]: 98.3%
Structure (SMILES): CCOC(=O)[C@]1(Cc2ccccc2)OC(=O)C(O)C1c1ccc(O)cc1 (stereo partly specified)

Structure (SMILES): CC1(C)C=Cc2c(ccc3c2[N+]([O-])=C2C3=C[C@@]34NC(=O)[C@]5(CCCN5C3=O)C[C@@H]4C2(C)C)O1
pIC50 (HL-60 [15]): 5.52 | pIC50 (A549 [16]): 5.72

Structure (SMILES): COc1ccc(C[C@@H]2NC(=O)[C@@]34OC(=O)O/C=C/[C@@](C)(O)C(=O)[C@@H](C)C/C=C/[C@H]3C(O)C(C)=C(C)[C@@H]24)cc1 (stereo partly specified)
pIC50 (A-375): 6.33 | pIC50 (A549 [2]): 6.33 | pIC50 (HepG2 [3]): 6.33 | pIC50 (MCF7 [4]): 6.33

Structure (SMILES): C/N=C(\N)NCCC/C=C/CCCC(C)C1OC(=O)/C(C)=C/C=C/C(C)C(O)CC(O)C(C)C(O)CCC(C)C(O)CC2(O)OC(CC(OC(=O)CC(=O)O)CC(O)CC(O)CC(O)/C(C)=C/C=C/C1C)CC(O)C2O (stereo unspecified)
IC50 (HCT-116 [17]): 1.81 µg/mL (≈ 1.67 µM) | MIC (Candida albicans [18]): 1.65 µg/mL (≈ 1.52 µM) | MBC (Staphylococcus aureus [19]): 8 µg/mL (≈ 7.39 µM) | MIC (Staphylococcus aureus [19]): 4 µg/mL (≈ 3.7 µM)

pIC50 (HL-60 [20]): > 7.00
Structure (SMILES): C/C=C/[C@H](OC)[C@H](C)/C=C(C)/C=C/C/C(C)=C/Cc1nc(OC)c(OC)c(O)c1C

Structure (SMILES): CC(C)CCC[C@H]1CCCCC(=O)O1
GI50 (MCF7 [21]): 0.11 µg/mL (≈ 0.555 µM) | GI50 [22]: 0.11 µg/mL (≈ 0.555 µM) | GI50 (HepG2 [23]): 0.11 µg/mL (≈ 0.555 µM)

pIC50 (HL-60 [20]): > 7.00
Structure (SMILES): COc1nc(C/C=C(\C)C/C=C/C(C)=C/[C@@H](C)/C=C(\C)[C@H](C)O)c(C)c(O)c1OC

pIC50 [1]: 5.03
Structure (SMILES): C/C=C/C=C/CCc1c(O)ccc(O)c1CO

Structure (SMILES): CC[C@H]1[C@@H]2C=C[C@@H]3[C@H]4C/C=C\C(=O)NCCC[C@H]5NC(=O)C(=C5O)C(=O)/C=C/[C@@H]4C[C@@H]3[C@H]2C[C@H]1C
pIC50 [7]: 5.89

Structure (SMILES): C/N=C(\NC)NCCC/C=C/CCCC(C)C1OC(=O)/C(C)=C/C=C/C(C)C(O)CC(O)C(C)C(O)CCC(C)C(O)CC2(O)OC(CC(OC(=O)CC(=O)O)CC(O)CC(O)CC(O)/C(C)=C/C=C/C1C)CC(O)C2O (stereo unspecified)
IC50 (HCT-116 [17]): 1.81 µg/mL (≈ 1.65 µM) | MIC (Candida albicans [18]): 1.65 µg/mL (≈ 1.5 µM) | MBC (Staphylococcus aureus [19]): 8 µg/mL (≈ 7.3 µM) | MIC (Staphylococcus aureus [19]): 4 µg/mL (≈ 3.65 µM)

pIC50 [1]: 5.62
Structure (SMILES): C=C1C(=O)CC2OC(=O)C(=C(O)C2CC)CCC2(C)CC(C)C(O2)C(C)C1OC (stereo unspecified)

pIC50 (HL-60 [20]): > 7.00
Structure (SMILES): C/C=C/[C@H](O)[C@H](C)/C=C(C)/C=C/C/C(C)=C/Cc1[nH]c(OC)cc(=O)c1C

Structure (SMILES): C/C=C(\C)[C@H](O)[C@H](C)/C=C(/C=C/C/C(C)=C/Cc1nc(OC)c(OC)c(O)c1C)CC
pIC50 (OS-RC-2): 5.35

pIC50 [9]: 5.33
Structure (SMILES): O=C(NCCCCO)c1ccc(O)c(O)c1

Structure (SMILES): Cc1cccc2cc3c(c(O)c12)C(=O)CC[C@@H]3O
pIC50 (HCT-116 [24]): 6.20 | pIC50 (SW-620): 6.20

inhibition [14]: > 65%
Structure (SMILES): O=C(CNC(=O)c1ccccc1-n1c(=O)[nH]c2ccccc2c1=O)c1ccccc1

Structure (SMILES): CCC(=O)OCc1c(OCC=C(C)C)c(C)cc(OC)c1C(=O)c1c(O)ccc2c1OC(C)(C)C=C2
pIC50 (HeLa): 5.04
